Structures are written as SMILES. Numbered stars: 1 amine (or outer) side, 2 acyl side, 3 side chain; on linkers, the order of the positions; unused ones are H or OH. Bridge positions count the residues as written; N and C are the ends. Square brackets hold non-standard residues; d marks the D form. Side chains are listed from the residue outwards. Peptide text beside a SMILES is read from it. * marks the point of attachment. C18 diacid = O=C(O)CCCCCCCCCCCCCCCCC(=O)*; γGlu = O=C(O)[C@H](CCC(=O)[*:2])N[*:1]; αMeF = C[C@](N)(Cc1ccccc1)C(=O)O; Aib = CC(C)(N)C(=O)O Bounds are passed on as bounds.

A short description of data set [1]: Thioflavin T fibrillation assay. The format is physicochemical. As to conditions: 1 mg/mL in 25 mM sodium acetate buffer pH 4.0, 37° C., 6 days, orbital shaking; >144 h = no increase. Put shortly: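 Peptides at 1 mg/mL in 25 mM sodium acetate pH 4.0 were mixed with ThT (0.25 mM stock) and held 6 days at 37 °C with intermittent orbital shaking at 500–750 rpm. Fluorescence (ex 444/em 480 nm) was read every 30 min, with buffer baseline correction and 5 replicates. Value: mean time to a detectable fluorescence increase.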

Another data set concerns lean rats. Description: Rat acute food intake study. The format is in vivo, Sprague Dawley rats. As to conditions: 20 nmol/kg subcutaneously. How it is done: Male Sprague Dawley rats were obtained from Taconic Denmark, ApS at approximately 7 weeks of age. . . . Rats were implanted with a microchip for identification, housed 4/cage with enrichment, free access to food and water, and allowed one week acclimatisation while non-invasive characterization was performed. Rats were on a 12:12 light:dark cycle that switches at 1 pm:1 am. Food intake was monitored via the HM2 system (Lafayette Instrument) that allows for monitoring in a home cage. As each rat enters an access tunnel to feed, an IR beam is broken, and the implanted microchip is read. Resulting changes to food weight is then assigned to the specific animal. Social order has shown no impact to overall feeding patterns and amounts.
Rats were sorted into groups based on Day-1 body weight and 24-hour accumulated food intake (n=7 per group). On Day 0 rats were weighed, then fasted for 6 hours. Thirty (30) minutes prior to the reintroduction of food, rats were dosed subcutaneously (5 ml/kg) with 20 nmol/kg of test compound or 60 nmol/kg peptide 1 (pramlintide) diluted in an appropriate vehicle, after which food was returned, and lights went out. Automated food intake was monitored for the following 3 days, and rats were weighed once per day.
Food intake per rat was batched into 1-hour intervals and integrated into Gubra's GubraView data management system. Discrete food intake data was exported into MS Excel from which cumulative food intake data was generated. Cumulative food intake data was then transposed into GraphPad Prism (v8.0.1) for analysis of dark period feeding

On to `CC[C@H](C)[C@H](NC(=O)[C@@H]1CCCN1C(=O)CNC(=O)[C@](C)(Cc1ccccc1)NC(=O)[C@H](CC(N)=O)NC(=O)[C@H](CC(N)=O)NC(=O)[C@H](CO)NC(=O)[C@H](CO)NC(=O)[C@H](Cc1c[nH]cn1)NC(=O)[C@H](CCCNC(=N)N)NC(=O)[C@H](CC(C)C)NC(=O)[C@H](Cc1ccccc1)NC(=O)[C@H](CC(N)=O)NC(=O)[C@H](C)NC(=O)[C@H](CC(C)C)NC(=O)[C@H](CCCNC(=N)N)NC(=O)[C@H](CCC(N)=O)NC(=O)[C@@H](NC(=O)[C@H](C)NC(=O)[C@@H]1CSSC[C@H](NC(=O)[C@@H](N)CCCCNC(=O)CC[C@H](NC(=O)CC[C@H](NC(=O)CCCCCCCCCCCCCCCCC(=O)O)C(=O)O)C(=O)O)C(=O)N[C@@H](CC(N)=O)C(=O)N[C@@H]([C@@H](C)O)C(=O)N[C@@H](C)C(=O)N[C@@H]([C@@H](C)O)C(=O)N1)[C@@H](C)O)C(=O)N[C@@H](CC(C)C)C(=O)N1CCC[C@H]1C(=O)N1CCC[C@H]1C(=O)N[C@H](C(=O)N[C@@H](CC(N)=O)C(=O)N[C@H](C(=O)NCC(=O)N[C@@H](CO)C(=O)N[C@@H](CC(N)=O)C(=O)N[C@H](C(=O)N[C@@H](Cc1ccc(O)cc1)C(N)=O)[C@@H](C)O)C(C)C)[C@@H](C)O` [Peptide 20, K(γE-γE-C18diacid)[CNTATC]ATQRLANFLRHSSNN(αMePhe)GPILPPTNVGSNTY-amide] (H-K([γGlu-γGlu-C18 diacid])CNTATCATQRLANFLRHSSNN[αMeF]GPILPPTNVGSNTY-NH2; disulfide 2-7; N-terminus assumed), for which the “Time taken to detect increase in fluorescence intensity” value (“Time taken to detect increase” for short) in data set [1] was over 144 h. Besides, in the data set on lean rats, the “Cummulative food intake (% vehicle treated intake) At 12 h” value was 27 % vehicle treated intake.
For the molecule `CC[C@H](C)[C@H](NC(=O)[C@@H]1CCCN1C(=O)CNC(=O)[C@H](Cc1ccccc1)NC(=O)[C@H](CC(N)=O)NC(=O)[C@H](CC(N)=O)NC(=O)[C@H](CO)NC(=O)[C@H](CO)NC(=O)[C@H](Cc1c[nH]cn1)NC(=O)C(C)(C)NC(=O)[C@H](CC(C)C)NC(=O)[C@H](Cc1ccccc1)NC(=O)[C@H](CC(N)=O)NC(=O)[C@H](C)NC(=O)[C@H](CC(C)C)NC(=O)[C@H](CCCNC(=N)N)NC(=O)[C@H](CCC(N)=O)NC(=O)[C@@H](NC(=O)[C@H](C)NC(=O)[C@@H]1CSSC[C@H](NC(=O)[C@H](CCCCN)NC(=O)[C@@H](N)CCCCNC(=O)CC[C@H](NC(=O)CCCCCCCCCCCCCCCCC(=O)O)C(=O)O)C(=O)N[C@@H](CC(N)=O)C(=O)N[C@@H]([C@@H](C)O)C(=O)N[C@@H](C)C(=O)N[C@@H]([C@@H](C)O)C(=O)N1)[C@@H](C)O)C(=O)N[C@@H](CC(C)C)C(=O)N1CCC[C@H]1C(=O)N1CCC[C@H]1C(=O)N[C@H](C(=O)N[C@@H](CC(N)=O)C(=O)N[C@H](C(=O)NCC(=O)N[C@@H](CO)C(=O)N[C@@H](CC(N)=O)C(=O)N[C@H](C(=O)N[C@@H](Cc1ccc(O)cc1)C(N)=O)[C@@H](C)O)C(C)C)[C@@H](C)O` [Peptide 129] (H-K([γGlu-C18 diacid])KCNTATCATQRLANFL[Aib]HSSNNFGPILPPTNVGSNTY-NH2; disulfide 3-8; N-terminus assumed), the “Time taken to detect increase” value in data set [1] was over 144 h. In the data set on lean rats, the “Cummulative food intake (% vehicle treated intake) At 12 h” value is given as 29 % vehicle treated intake and the “Cummulative food intake (% vehicle treated intake) At 48 h” value is 51 % vehicle treated intake.
In the case of `CC[C@H](C)[C@H](NC(=O)[C@@H]1CCCN1C(=O)CNC(=O)[C@H](Cc1ccccc1)NC(=O)[C@H](CC(N)=O)NC(=O)[C@H](CC(N)=O)NC(=O)[C@H](CO)NC(=O)[C@H](CO)NC(=O)[C@H](Cc1c[nH]cn1)NC(=O)C(C)(C)NC(=O)[C@H](CC(C)C)NC(=O)[C@H](Cc1ccccc1)NC(=O)[C@H](CC(N)=O)NC(=O)[C@H](C)NC(=O)[C@H](CC(C)C)NC(=O)[C@H](CCCNC(=N)N)NC(=O)[C@H](CCC(N)=O)NC(=O)[C@@H](NC(=O)[C@H](C)NC(=O)[C@@H]1CSSC[C@H](NC(=O)[C@@H](N)CCCCNC(=O)CC[C@H](NC(=O)CCCCCCCCCCCCCCCCC(=O)O)C(=O)O)C(=O)N[C@@H](CC(N)=O)C(=O)N[C@@H]([C@@H](C)O)C(=O)N[C@@H](C)C(=O)N[C@@H]([C@@H](C)O)C(=O)N1)[C@@H](C)O)C(=O)N[C@@H](CC(C)C)C(=O)N1CCC[C@H]1C(=O)N1CCC[C@H]1C(=O)N[C@H](C(=O)N[C@@H](CC(N)=O)C(=O)N[C@H](C(=O)NCC(=O)N[C@@H](CO)C(=O)N[C@@H](CC(N)=O)C(=O)N[C@H](C(=O)N[C@@H](Cc1ccc(O)cc1)C(N)=O)[C@@H](C)O)C(C)C)[C@@H](C)O` [Peptide 149] (H-K([γGlu-C18 diacid])CNTATCATQRLANFL[Aib]HSSNNFGPILPPTNVGSNTY-NH2; disulfide 2-7; N-terminus assumed), in the data set on lean rats, the “Cummulative food intake (% vehicle treated intake) At 12 h” value is listed as 31 % vehicle treated intake.
As for `CC[C@H](C)[C@H](NC(=O)[C@@H]1CCCN1C(=O)CNC(=O)[C@](C)(Cc1ccccc1)NC(=O)[C@H](CC(N)=O)NC(=O)[C@H](CC(N)=O)NC(=O)[C@H](CO)NC(=O)[C@H](CO)NC(=O)[C@H](Cc1c[nH]cn1)NC(=O)[C@H](CCCNC(=N)N)NC(=O)[C@H](CC(C)C)NC(=O)[C@H](Cc1ccccc1)NC(=O)[C@H](CCC(=O)O)NC(=O)[C@H](C)NC(=O)[C@H](CC(C)C)NC(=O)[C@H](CCCNC(=N)N)NC(=O)[C@H](CCC(N)=O)NC(=O)[C@@H](NC(=O)[C@H](C)NC(=O)[C@@H]1CSSC[C@H](NC(=O)[C@H](CCCCN)NC(=O)[C@@H](N)CCCCNC(=O)CC[C@H](NC(=O)CCCCCCCCCCCCCCCCC(=O)O)C(=O)O)C(=O)N[C@@H](CC(N)=O)C(=O)N[C@@H]([C@@H](C)O)C(=O)N[C@@H](C)C(=O)N[C@@H]([C@@H](C)O)C(=O)N1)[C@@H](C)O)C(=O)N[C@@H](CC(C)C)C(=O)N1CCC[C@H]1C(=O)N1CCC[C@H]1C(=O)N[C@H](C(=O)N[C@@H](CC(N)=O)C(=O)N[C@H](C(=O)NCC(=O)N[C@@H](CO)C(=O)N[C@@H](CC(N)=O)C(=O)N[C@H](C(=O)N[C@@H](Cc1ccc(O)cc1)C(N)=O)[C@@H](C)O)C(C)C)[C@@H](C)O` [Peptide 12, K(γE-C18diacid)K[CNTATC]ATQRLAEFLRHSSNN(αMePhe)GPILPPTNVGSNTY-amide] (H-K([γGlu-C18 diacid])KCNTATCATQRLAEFLRHSSNN[αMeF]GPILPPTNVGSNTY-NH2; disulfide 3-8; N-terminus assumed), in data set [1], the “Time taken to detect increase” value is reported as over 144 h. Besides, the “Cummulative food intake (% vehicle treated intake) At 12 h” value in the data set with lean rats stood at 9.4 % vehicle treated intake. In addition, in the data set on lean rats (at 24 h), the “Cummulative food intake (% vehicle treated intake) At 24 h” value is recorded as 7.5 % vehicle treated intake.
Take `CC[C@H](C)[C@H](NC(=O)[C@@H]1CCCN1C(=O)CNC(=O)[C@H](Cc1ccccc1)NC(=O)[C@H](CC(N)=O)NC(=O)C(C)(C)NC(=O)[C@H](CO)NC(=O)[C@H](CO)NC(=O)[C@H](Cc1c[nH]cn1)NC(=O)[C@@H](NC(=O)[C@H](CC(C)C)NC(=O)[C@H](Cc1ccccc1)NC(=O)[C@H](CC(N)=O)NC(=O)[C@H](C)NC(=O)[C@H](CC(C)C)NC(=O)[C@H](CCCNC(=N)N)NC(=O)[C@H](CCC(N)=O)NC(=O)[C@@H](NC(=O)[C@H](C)NC(=O)[C@@H]1CSSC[C@H](NC(=O)[C@H](CCCCN)NC(=O)[C@@H](N)CCCCNC(=O)CC[C@H](NC(=O)CCCCCCCCCCCCCCCCC(=O)O)C(=O)O)C(=O)N[C@@H](CC(N)=O)C(=O)N[C@@H]([C@@H](C)O)C(=O)N[C@@H](C)C(=O)N[C@@H]([C@@H](C)O)C(=O)N1)[C@@H](C)O)C(C)C)C(=O)N[C@@H](CC(C)C)C(=O)N1CCC[C@H]1C(=O)N1CCC[C@H]1C(=O)N[C@H](C(=O)N[C@@H](CC(N)=O)C(=O)N[C@H](C(=O)NCC(=O)N[C@@H](CO)C(=O)N[C@@H](CC(N)=O)C(=O)N[C@H](C(=O)N[C@@H](Cc1ccc(O)cc1)C(N)=O)[C@@H](C)O)C(C)C)[C@@H](C)O` [Peptide 35, K(γE-C18diacid)K[CNTATC]ATQRLANFLVHSS(Aib)NFGPILPPTNVGSNTY-amide] (H-K([γGlu-C18 diacid])KCNTATCATQRLANFLVHSS[Aib]NFGPILPPTNVGSNTY-NH2; disulfide 3-8; N-terminus assumed): the “Cummulative food intake (% vehicle treated intake) At 48 h” value in the data set with lean rats turned out to be 72 % vehicle treated intake.

Source of the values: patent publication US12371464B2, “Polypeptides and uses thereof” (MEDIMMUNE LIMITED, priority 2020, dated 2025).
